{"source": "patent US20240263147A1", "about": "“CARDIAC ORGANOID AND ANTI-ELECTRO-MITOCHONDRIAL DESYNCHRONIZATION THERAPY” (YISSUM RESEARCH DEVELOPMENT COMPANY OF THE HEBREW …, priority 2021, published 2024)", "format_in_all_cases": "cell-based, human", "key": {"[1]": {"test_system": "vascularized cardiac organoids", "experiment": "Integrated metabolic-electro-mechanical sensor chip: simultaneous contraction, field potential and interstitial oxygen", "settings": "10 μM KB-R7943", "experimental": "The MEA design and printed connections enabled access to 45 different electrodes inside the platform intermittently via a compatible sensor circuit (FIGS. 9A-9B). Spontaneous cardiac field potentials (FPs) were recorded from cardiac organoids using an integrated signal conditioning circuit (AD8232®), with a 2-pole adjustable high-pass filter, 3-pole adjustable low-pass filter, adjustable gain, and medical instrumentation amplifiers to extract, amplify, and filter the extracellular field potential of the organoids remotely within the confined well. […] Spontaneous cardiac field potentials were measured at 100 Hz sampling rate in each microwell. Field potential rhythm frequency was calculated in real-time using a custom-made MATLAB® software imposing Fourier Transformation (FFT) on the evolving kinetic data (FIGS. 9C-9D).\nReal-time oxygen measurement was performed based on previously described elements. Briefly, phosphorescent ruthenium microprobes (CPOx-50-RuP) show a decrease in phosphorescence decay time as a function of oxygen concentration, allowing to measure the oxygen content. Controlled sinusoidal modulated 532-nm LED signal excites the embedded oxygen sensors and emits a sinusoidal amplitude-modulated light at 605 nm that is shifted in phase due to oxygen quenching. A phase shift is measured between the emission hardware-filtered first detector (PMT), and a second excitation detector (cPMT). […] Measurements were carried out at a 10 Hz sampling rate. Contraction rate and oxygen rhythm frequency were calculated in real-time using a custom-made MATLAB® software imposing Fourier Transformation (FFT) on the evolving kinetic data. Using custom MATLAB code, we calculated the cardiac organoid contraction rates directly from our oxygen reader based on the emission intensity measured in peak-to-peak voltage from the oxygen bead and its displacement using the second PMT system. Cardiac displacement was measured by the embedded oxygen beads inside the cardiac organoids during a contraction. When the beads move at different distances from the focal point, changes in peak-to-peak voltage occurred leading to the detection of the contraction behavior.\nFor simultaneous real-time oxygen, contraction rate, and field potential measurements, cardiac organoids were cultured in RPMI supplemented with B27 minus insulin, 5 ng/ml VEGF and 0.1% DMSO (control) or 10 μM KB-R7943 mesylate. Real-time oxygen, contraction rate, and field potential were measured after 0, 15, and 25 minutes of exposure to DMSO (control) or 10 μM KB-R7943 mesylate."}, "[2]": {"test_system": "vascularized cardiac organoids", "experiment": "Integrated metabolic-electro-mechanical sensor chip: simultaneous contraction, field potential and interstitial oxygen", "settings": "10 μM KB-R7943, within 35 minutes of exposure; n=9"}, "[3]": {"test_system": "hiPSC-derived cardiomyocytes", "experiment": "Live imaging of mitochondrial calcium (Rhod-2AM) and visual contraction analysis in 2D culture", "settings": "for decrease of magnitude of [Ca2+]m oscillations / reduction of contraction magnitude: n=4", "experimental": "Fast phase-contrast imaging (17 frames per second) was performed at suitable magnification using an LSM-700 Zeiss microscope. The time-lapse micrograph was analyzed using a custom MATLAB® code. Briefly, multiple regions of interest (ROIs) were selected on the cardiac tissue borders, producing a distinct area with changes representative of the cardiac contraction. Dynamic changes in the ROI intensity were measured over time and converted into beating rates using Fast Fourier Transformation (FFT). Contractility was calculated based on the frequency amplitude magnitude.\nFor mitochondrial calcium live imaging, different hiPSC-derived cardiomyocytes were cultured in RPMI supplemented with B27 minus insulin, and 0.1% DMSO (control) or […] KB-R7943 mesylate (Tocris Bioscieice, USA), Mean mitochondrial calcium was measured using live imaging of Rhod-2AM dye after 0, 30, and 90 seconds of exposure to DMSO (control) or 10 μM MCU inhibitor KB-R7943 mesylate\nMitochondrial calcium uptake within human iPSC-derived cardiomyocytes was measured using Rhod-2AM dye according to the manufacturer's instructions (Abcam, USA). Cells were loaded with […] Rhod-2AM in RPMI supplemented with B27-I for 30 min at 37° C., washed with PBS, and incubated with RPMI supplemented with […] KB-R7943 or 0.1% DMSO, and B27-I. Measurements were taken continuously using an incubated LSM-700 Zeiss microscope at 5% CO2 and 37° C. Rhod-2AM measurement was conducted by excitation at 552 nm at a 10 Hz sampling rate. Mitochondrial calcium uptake was calculated by the change of the mean emission intensity at 581 nm. The time-lapse micrograph was analyzed using multiple regions of interest (ROIs) and was selected based on Mitotracker staining, producing a distinct area with changes representative to mitochondrial networks. Changes in fluorescent intensity were used to determine oscillation rate and amplitude."}, "[4]": {"test_system": "vascularized cardiac organoids", "experiment": "Metabolic flux balance analysis and ATP production in cardiac organoids", "settings": "10 μM KB-R7943, within 20 minutes of exposure", "experimental": "Amperometric 4-analytes sensors (B.LV5) were purchased from Innovative Sensor Technology (IST, Switzerland). Measurements were carried out and calibrated to sensitivity decrease by an on-chip potentiostat (IST, Switzerland). Oxygen, glucose, lactate, and glutamine fluxes were measured by calculating the change in metabolite concentration over time. Glutamine measurement allowed us to calculate lipid metabolism fluxes. Oxidative phosphorylation flux was calculated by dividing the oxygen uptake rate by six. The inventors estimated 32 ATP molecules generated by the complete oxidation of glucose. Glycolysis flux was calculated by dividing the lactate production rate by two, with the maximal rate defined by glucose uptake rate minus the oxidative phosphorylation flux. ATP production in glycolysis was estimated to be two molecules per molecule of glucose. Glutaminolysis was calculated directly by glutamine uptake. ATP production in glutaminolysis was estimated to be three molecules per molecule of lactate generated."}}, "note": "Entries after “also recorded” stand apart in the source; their conditions may differ."}
{"smiles": "N=C(N)SCCc1ccc(OCc2ccc([N+](=O)[O-])cc2)cc1", "note": "[KB-R7943]", "values": [{"measurement": "effect on coupling of mitochondrial and electro-mechanical activity", "setting": "[1]", "result": "caused uncoupling between mitochondrial and electro-mechanical activity, resulting in arrhythmic cardiac behavior"}, {"measurement": "effect on magnitude of organoid contraction and depolarization", "setting": "[1]", "result": "comparable and parallel decrease"}, {"measurement": "effect on oxygen uptake of the cardiac organoid", "setting": "[1]", "result": "progressive decrease in the oxygen uptake"}, {"measurement": "effect on magnitude of oxygen oscillations", "setting": "[1]; n=9", "result": "significantly and progressively decreased"}, {"measurement": "increase of contraction frequency, oxygen oscillation rate and field potential oscillation frequency (all three rates)", "setting": "[2]", "result": 2.5, "unit": "fold"}, {"measurement": "effect on [Ca2+]m concentration", "setting": "[3]; 10 μM KB-R7943", "result": "no significant difference"}, {"measurement": "decrease of magnitude of [Ca2+]m oscillations", "setting": "[3]; 10 μM KB-R7943, 30 seconds", "result": 60, "unit": "%"}, {"measurement": "reduction of contraction magnitude", "setting": "[3]; 10 μM KB-R7943, 30 seconds", "result": 45, "unit": "%"}, {"measurement": "decrease of magnitude of [Ca2+]m oscillations", "setting": "[3]; 10 μM KB-R7943, 90 seconds", "result": 78, "unit": "%"}, {"measurement": "reduction of contraction magnitude", "setting": "[3]; 10 μM KB-R7943, 90 seconds", "result": 70, "unit": "%"}, {"measurement": "effect on cardiomyocyte contractility and [Ca2+]m oscillation amplitude", "setting": "[3]; 10 μM KB-R7943, acute", "result": "dramatically decreases cardiomyocyte contractility, and [Ca^2+]m oscillation amplitude; also recorded: decreases the magnitude of cardiomyocyte contraction"}, {"measurement": "effect on cardiomyocyte contraction frequency (rate)", "setting": "[3]; 10 μM KB-R7943, short term exposure", "result": "without affecting contraction rate; also recorded: did not significantly affect"}, {"measurement": "effect on ATP generation (production)", "setting": "[4]", "result": "decrease in ATP production; also recorded: decrease in ATP generation"}]}
